≈ marks a conversion by molar mass, not a printed value. Where “and” joins values, the source holds several entries; their conditions need not be identical. Equal values may be shown once. Read-outs that look alike come from different tables or passages of the source.
Columns and labels:
S. aureus = assay: Minimum inhibitory concentration, broth dilution, S. aureus strains; type: cell-based, Staphylococcus aureus
Method: (§1) The minimum inhibitory concentration (MIC) defines the lowest concentration of a compound required to inhibit the growth. A single colony of the bacteria being tested was grown in 5 mL of liquid growth media. Following overnight growth, the culture was diluted 100-fold into fresh media and incubated at 37°C until the cells reached mid-log phase (OD600 of 0.3 to 0.5). The cells were diluted 10,000-fold into fresh media and the MIC determined for each of the strains by adding 2 μL of the diluted compound to 198 μL of the diluted cells in a clear 96-well plate. The plates were incubated at 37°C overnight and the optical density at 600 nm was measured for each well. All MIC assays were performed in triplicate.

S. venezuelae = S. venezuelae sporulation inhibition disk diffusion assay (whi phenotype, SEM); type: cell-based, Streptomyces venezuelae; settings: for Sporulation inhibition: disk with 10 μL antibiotic, 48 h, white halo in sub-MIC region; for Aerial hyphae septation by SEM: lawn immediately adjacent to the zone of inhibition
Method: A lawn of S. venezuelae spores was plated on MYM agar plates and allowed to dry. For the initial screen, 2 μL of each molecule at 2.5 mM was spotted directly to the agar plate. For known antibiotics or follow-up screening, 10 μL of molecule was added to a drug disk, allowed to dry, and placed on the agar plate. The S. venezuelae plate was incubated at 30°C for 48 hours and photographed. The whi phenotype was identified by eye. Hits were selected based on their ability to induce a whi phenotype at sub-inhibitory concentrations and scored by eye on the size of the induced whi region and the zone of inhibition.
To prepare samples for SEM, the agar plate containing a lawn of S. venezuelae was cut at the edge of the zone of inhibition and fixed with 2% glutaraldehyde in 0.1% sodium cacodylate buffer followed by sputter coating with gold. Images were obtained and processed using a FEI XL30 ESEM. The contrast of the resulting images was adjusted to highlight the appearance or lack of spore formation.

E. coli = assay: Minimum inhibitory concentration, broth dilution, E. coli strains; type: cell-based, Escherichia coli
Method: as §1

S. aureus gyrase [1] = biological target: T1, S. aureus gyrase (Staphylococcus aureus, UniProt P0A0K8+P20831); assay: S. aureus gyrase supercoiling; type: biochemical; settings: purified S. aureus gyrase, wild-type
T1 construct: purchased Inspiralis Inc. SAS4001 (supercoiling kit); SAGC001 (cleavage assay kit)
Method: (§2) 1 U of DNA gyrase was incubated with 0.5 μg of relaxed pBR322 DNA in a 30 μl reaction at 37°C for 30 minutes under the following conditions: 35 mM Tris.HCl (pH 7.5), 24 mM KCl, 4 mM MgCl2, 2 mM DTT, 1.8 mM Spermidine, 1 mM ATP, 6.5% (w/v) glycerol and 0.1 mg/mL BSA. Each reaction was stopped by the addition of 30 μl chloroform/iso-amyl alcohol (24:1) and 20 μl Stop Dye (40% sucrose, 100 mM Tris.HCl (pH 7.5), 10 mM EDTA, 0.5 μg/mL bromophenol blue), before being loaded on a 1.0% TAE (Tris.acetate […], EDTA […]) agarose gel. Gels run at 90 V for 2 hours. Bands were visualized by ethidium staining for 20 minutes and destaining in water for 20 minutes. Gels were scanned using a gel documentation system (GeneGenius, Syngene, Cambridge, UK) and percent inhibition levels obtained with gel scanning software (GeneTools, Syngene, Cambridge,UK).
(§3) As for E. coli gyrase except assay conditions were: 40 mM HEPES. KOH (pH 7.6), 10 mM magnesium acetate, 10 mM DTT, 2 mM ATP, 500 mM potassium glutamate, and 0.05 mg/mL BSA. Gels run at 80 V for 3 hours.

E. coli gyrase = biological target: T2, E. coli gyrase (Escherichia coli, UniProt P0AES4+P0AES6); assay: E. coli gyrase supercoiling; type: biochemical; settings: purified E. coli gyrase
T2 construct: purchased Inspiralis Inc. K0001
Method: as §2

[2] = biological target: T3, S. aureus topoisomerase IV (Staphylococcus aureus, UniProt P0C1S7+P0C1U9); assay: S. aureus topoisomerase IV decatenation; type: biochemical; settings: purified S. aureus topoisomerase IV; no activity up to; read-out: IC50, topoisomerase IV-catalyzed decatenation
T3 construct: purchased Inspiralis Inc. SAD4001
Method: 1 U of topoisomerase IV was incubated with 200 ng kDNA DNA in a 30 μl reaction at 37 C for 30 minutes under the following conditions: 50 mM HEPES-KOH (pH 7.6), 100 mM potassium glutamate, 10 mM magnesium acetate, 10 mM dithiothreitol, 1 mM ATP and 50 μg/mL BSA. Each reaction was stopped by the addition of 30 μl chloroform/iso-amyl alcohol (24:1) and 20 μl Stop Dye, before being loaded on a 1.0% TAE agarose gel. Gels run at 90 V for 2 hours.
As for E coli topoisomerase IV except assay conditions were: 50 mM Tris-HCl (7.5), 5 mM MgCl2, 5 mM DTT, 1.5 mM ATP, 350 mM potassium glutamate and 0.05 mg/mL BSA. Gels run at 80 V for 2 hours.

S. aureus gyrase [3] = biological target: T1, S. aureus gyrase; assay: S. aureus gyrase cleavage; type: biochemical
Method: 1 U of gyrase was incubated with 0.5 μg of supercoiled pBR322 DNA in a 30 μL reaction at 37 C for 30 minutes under the following conditions: 40 mM HEPES. KOH (pH 7.6), 10 mM magnesium acetate, 10 mM DTT, 100 mM potassium glutamate and 0.05 mg/mL albumin. 0.2 % SDS and 0.1 mg/mL Proteinase K were added before a further incubation at 37°C for 30 minutes. Each reaction was stopped by the addition of 30 μL chloroform/iso-amyl alcohol (24:1) and 20 μL Stop Dye, before being loaded on a 1.0% TAE agarose gel. Gels run at 80 V for 2 hours.

S. aureus gyrase [4] = biological target: T1, S. aureus gyrase; assay: S. aureus gyrase relaxation; type: biochemical; settings: ATP-independent
Method: 1 U of gyrase was incubated with 0.5 μg of supercoiled pBR322 DNA in a 30 μL reaction at 37°C for 60 minutes under the following conditions: 50 mM Tris.HCl (pH 7.5), 5 mM MgCl2,5 mM DTT, 350 mM potassium glutamate, and 0.05 mg/mL albumin. Each reaction was stopped by the addition of 30 μL chloroform/iso-amyl alcohol (24:1) and 20 μl Stop Dye, before being loaded on a 1.0% TAE agarose gel. Gels run at 80 V for 2 hours.

[5] = biological target: T4, S. aureus gyrase GyrA S84L (Staphylococcus aureus, UniProt P0A0K8+P20831, S84L); assay: Supercoiling inhibition of S. aureus gyrase mutant GyrA S84L; type: biochemical; settings: for Susceptibility of gyrase mutant GyrA S84L: S. aureus gyrase
T4 construct: purchased Inspiralis Inc. SAAS84L01
Method: as §2, §3

HEK293 cells = assay: Toxicity against human HEK293 cells; type: cell-based
From the text: The experimental model that we have employed is Staphyloccocus aureus strain ATCC 29213. We have used the cell line HEK293, as a control for EN-7 toxicity against human cells.

[6] = Staphylococcus aureus, ATCC29213, S. aureus ATCC 29213 (wild-type, parent strain), read-out: MIC
[7] = Staphylococcus aureus, ATCC29213, S. aureus parent strain (ATCC 29213), read-out: MIC
[8] = Staphylococcus aureus, EN-7-resistant S. aureus mutants

## O=c1ccc2ncc(=O)n3c2n1C[C@H]3CN1CCC(NCc2cc3c(cn2)OCCC3)CC1 [gepotidacin, reference compound]
S. aureus; [6]
  MIC: 0.5 µM
S. aureus; Staphylococcus aureus, EN-7-resistant S. aureus strains with GyrB D437N (mut-7, mut-8)
  MIC: 32 µM

## CO[C@@H]1[C@@H](OC(N)=O)[C@@H](O)[C@H](Oc2ccc3c(O)c(NC(=O)c4ccc(O)c(CC=C(C)C)c4)c(=O)oc3c2C)OC1(C)C [novobiocin, reference compound]
S. venezuelae
  Sporulation inhibition: +
S. aureus; [7]
  MIC: 0.06 µg/mL
S. aureus; [8]
  MIC: 0.06 µg/mL

## NC[C@H]1O[C@H](O[C@H]2[C@H](O)[C@@H](O[C@H]3O[C@H](CO)[C@@H](O)[C@H](N)[C@H]3O)[C@H](N)C[C@@H]2N)[C@H](O)[C@@H](O)[C@@H]1O [Kanamycin, kanamycin]
S. venezuelae
  Sporulation inhibition: −
  Aerial hyphae septation by SEM: septated aerial hyphae

## O=C(/C=C/c1cccc2cccnc12)NNC(=O)c1cc(-c2ccccc2)on1 [EN-7]
S. venezuelae; filter disk, 10 μL of 2.5 mM
  Growth inhibition (zone of inhibition): significant zone of inhibition
  Sporulation inhibition below the MIC for growth: striking band of inhibited sporulation
S. aureus; S. aureus clinical strain C0018, read-out: MIC
  MIC: >128 µM
S. aureus; S. aureus clinical strain C0032, read-out: MIC
  MIC: >128 µM
S. aureus; S. aureus clinical strain C0117, read-out: MIC
  MIC: >128 µM
S. aureus; [6]
  MIC: 1 µM
S. aureus; Staphylococcus aureus, ATCC29213, nine EN-7-resistant S. aureus ATCC 29213 mutants (mut-1 to mut-9), 16 μM highest concentration tested
  MIC: > 16 µM
S. aureus; Staphylococcus aureus, ATCC29213, three S. aureus ATCC 29213 GyrB K417E allelic exchange strains
  MIC: > 128 µM
S. aureus; Staphylococcus aureus, ATCC 29213 / ATCC 33591, S. aureus three laboratory strains (ATCC 29213, TCH1516, ATCC 33591) and four clinical strains (C0017, C0024, C0023, C0019), read-out: MIC
  MIC: 0.4 µg/mL
S. aureus; Staphylococcus aureus, ATCC33519, S. aureus ATCC 33519, read-out: MIC
  MIC: 1 µM
S. aureus; Staphylococcus aureus, S. aureus TCH 1516, read-out: MIC
  MIC: 1 µM
S. aureus; Staphylococcus aureus, S. aureus clinical strain C0017, read-out: MIC
  MIC: 1 µM
S. aureus; Staphylococcus aureus, S. aureus clinical strain C0018, read-out: MIC
  MIC: > 128 µM
S. aureus; Staphylococcus aureus, S. aureus clinical strain C0019, read-out: MIC
  MIC: 1 µM
S. aureus; Staphylococcus aureus, S. aureus clinical strain C0023, read-out: MIC
  MIC: 1 µM
S. aureus; Staphylococcus aureus, S. aureus clinical strain C0024, read-out: MIC
  MIC: 1 µM
S. aureus; Staphylococcus aureus, S. aureus clinical strain C0032, read-out: MIC
  MIC: > 128 µM
S. aureus; Staphylococcus aureus, S. aureus clinical strain C0112, read-out: MIC
  MIC: 4 µM
S. aureus; Staphylococcus aureus, S. aureus clinical strain C0117, read-out: MIC
  MIC: > 128 µM
E. coli; E. coli BW25113, read-out: MIC
  MIC: >64 µM
E. coli; E. coli MC1061, read-out: MIC
  MIC: >64 µM
E. coli; Escherichia coli, BW25113, E. coli BW25113, read-out: MIC
  MIC: > 64 µM
E. coli; Escherichia coli, BW25113, E. coli BW25113 ΔtolC ΔbamB, outer-membrane and efflux-deficient
  MIC: 1 µM (≈ 0.384 µg/mL)
E. coli; Escherichia coli, E. coli MC1061, read-out: MIC
  MIC: > 64 µM
S. aureus gyrase [1]
  IC50: 85 nM
E. coli gyrase
  IC50: 1750 nM
[2]
  IC50: > 100000 nM
S. aureus gyrase [3]; S. aureus gyrase, pBR322
  Occurrence of DNA nicking: does increase the occurrence of DNA nicking
  Stabilization of gyrase-DNA double-stranded cleavage complex: does not stabilize
S. aureus gyrase [3]; co-treatment with ciprofloxacin
  Effect on ciprofloxacin-induced formation of the double-stranded cleavage complex: does not prevent
S. aureus gyrase [4]
  Inhibition of gyrase-induced DNA relaxation: inhibit
S. aureus gyrase [4]; read-out: IC50, gyrase-induced relaxation
  IC50: 100 to 500 nM
[5]
  IC50: 9960 nM
  Susceptibility of gyrase mutant GyrA S84L: less susceptible
[5]; GyrA S84L vs wild-type S. aureus gyrase, supercoiling inhibition
  Increase of IC50 relative to the wild-type enzyme: > 100 fold and ~100 fold
HEK293 cells
  Toxicity to human HEK293 cells: no toxicity

## N#CC(C#N)=NNc1cccc(Cl)c1 [CCCP, carbonyl cyanide m-chlorophenyl hydrazone]
S. venezuelae
  Sporulation inhibition: −

## CO[C@H]1/C=C/O[C@@]2(C)Oc3c(C)c(O)c4c(O)c(c(/C=N/N5CCN(C)CC5)c(O)c4c3C2=O)NC(=O)/C(C)=C\C=C\[C@H](C)[C@H](O)[C@@H](C)[C@@H](O)[C@@H](C)[C@H](OC(C)=O)[C@@H]1C [Rifampicin, rifampicin]
S. venezuelae
  Sporulation inhibition: −
  Aerial hyphae septation by SEM: septated aerial hyphae

## bleomycin
S. venezuelae
  Sporulation inhibition: +

## O=C(O)c1cn(C2CC2)c2cc(N3CCNCC3)c(F)cc2c1=O [ciprofloxacin, reference compound]
S. venezuelae
  Sporulation inhibition: +
  Aerial hyphae septation by SEM: do not show any aerial hyphae septation
S. aureus; [7]
  MIC: 0.2 µg/mL
S. aureus; [8]
  MIC: 0.2 µg/mL

## COc1c(N2C[C@@H]3CCCN[C@@H]3C2)c(F)cc2c(=O)c(C(=O)O)cn(C3CC3)c12 [moxifloxacin, reference compound]
S. aureus gyrase [4]
  Inhibition of gyrase-induced DNA relaxation: inhibit
[5]
  Susceptibility of gyrase mutant GyrA S84L: less susceptible

## CN[C@H](CC(C)C)C(=O)N[C@H]1C(=O)N[C@@H](CC(N)=O)C(=O)N[C@H]2C(=O)N[C@H]3C(=O)N[C@H](C(=O)N[C@H](C(=O)O)c4cc(O)cc(O)c4-c4cc3ccc4O)[C@H](O)c3ccc(c(Cl)c3)Oc3cc2cc(c3O[C@@H]2O[C@H](CO)[C@@H](O)[C@H](O)[C@H]2O[C@H]2C[C@](C)(N)[C@H](O)[C@H](C)O2)Oc2ccc(cc2Cl)[C@H]1O [Vancomycin, vancomycin]
S. venezuelae
  Sporulation inhibition: −

## CO[C@@]12[C@H](COC(N)=O)C3=C(C(=O)C(C)=C(N)C3=O)N1C[C@@H]1N[C@@H]12 [Mitomycin C, mitomycin C]
S. venezuelae
  Sporulation inhibition: +
  Aerial hyphae septation by SEM: do not show any aerial hyphae septation

## Oc1cc(Cl)ccc1Oc1ccc(Cl)cc1Cl [Triclosan, triclosan]
S. venezuelae
  Sporulation inhibition: −
